pIC50, pKd: −log10 of the molar value. Active and inactive are the calls of the source. No cut-off for these calls is given here.
What was measured:
[1] = target: T1, Replication protein A 70 kDa DNA-binding subunit (Homo sapiens, UniProt P27694); experiment: Binding affinity to human RPA70N assessed as inhibition of interaction with FITC-Ahx-DFTADDLEELDTLAS-NH2 after 1 hr by fluorescence polarization anisotropy assay
[2] = target: T1, Replication protein A 70 kDa DNA-binding subunit; experiment: Binding affinity to human RPA70N expressed in Escherichia coli BL21 (DE3) assessed as inhibition of interaction with FITC-Ahx-DFTADDLEELDTLAS-NH2 after 1 hr by fluorescence polarization anisotropy assay
[3] = Inhibition of human RPA binding to [32P]-ssDNA overexpressed in Escherichia coli by EMSA
Homo sapiens = species: Homo sapiens; experiment: Inhibition of full length RPA (unknown origin) binding to ssDNA up to 100 uM preincubated for 5 mins prior to substrate addition measured after 30 mins by EMSA
[4] = target: T1, Replication protein A 70 kDa DNA-binding subunit; experiment: Binding affinity to human RPA (1 to 422) containing RPA70N and RPA70NAB assessed as inhibition of interaction with FITC-Ahx-DFTADDLEELDTLAS-NH2 after 1 hr by fluorescence polarization anisotropy assay

T1 sequence (P27694 whole entry): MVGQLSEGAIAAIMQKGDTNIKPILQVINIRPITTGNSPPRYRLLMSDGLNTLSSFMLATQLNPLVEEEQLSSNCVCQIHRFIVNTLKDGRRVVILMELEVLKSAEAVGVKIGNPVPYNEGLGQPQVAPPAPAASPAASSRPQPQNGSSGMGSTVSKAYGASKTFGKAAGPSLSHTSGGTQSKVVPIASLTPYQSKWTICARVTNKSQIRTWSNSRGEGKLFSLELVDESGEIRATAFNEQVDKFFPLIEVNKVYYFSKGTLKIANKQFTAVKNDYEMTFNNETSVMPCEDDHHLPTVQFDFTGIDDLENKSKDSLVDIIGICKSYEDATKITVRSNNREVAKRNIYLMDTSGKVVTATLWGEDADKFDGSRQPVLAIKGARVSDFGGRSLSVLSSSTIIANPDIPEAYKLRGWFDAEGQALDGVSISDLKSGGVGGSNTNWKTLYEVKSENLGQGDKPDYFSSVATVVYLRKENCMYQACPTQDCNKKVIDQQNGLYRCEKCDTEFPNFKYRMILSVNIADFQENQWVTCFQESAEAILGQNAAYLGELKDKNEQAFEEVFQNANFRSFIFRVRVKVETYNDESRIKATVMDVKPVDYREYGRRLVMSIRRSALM

SMILES	pKd [1]	further results
O=C(O)c1cc2ccc(-n3c(S)nnc3-c3ccccc3)cc2s1	< 3.60	
Cc1ccccc1-c1nnc(SCC(=O)O)n1-c1cccc(Cl)c1	< 3.60	
O=C(O)c1cc2ccc(-n3c(S)nnc3-c3ccc(Cl)c(Cl)c3)cc2s1	4.66	
Cc1ccccc1-c1nnc(S)n1-c1ccc2c(Cl)c(C(=O)O)sc2c1	4.18	
O=C(O)CSc1nnc(-c2ccc(F)cc2)n1-c1ccc(Cl)cc1	< 3.60	
O=C(O)CSc1nnc(-c2sc3ccccc3c2Cl)n1-c1ccccc1	3.87	
CC(C)C1=C[C@]23CC[C@@H]4[C@](C)(CCC[C@@]4(C)C(=O)O)[C@H]2C[C@@H]1[C@@H](C(=O)O)[C@@H]3C(=O)O		pKd [2]: 4.74
O=C(O)c1sc2cc(-n3c(S)nnc3-c3c[nH]c4ccccc34)ccc2c1Cl	< 3.60	
O=C(O)c1sc2cc(-n3c(S)nnc3-c3ccccc3)ccc2c1Cl	3.89	
O=C(O)CSc1nnc(-c2cc3ccccc3s2)n1-c1ccc(Cl)c(Cl)c1	4.24	
O=C(O)c1cc2ccc(-n3c(-c4cc(Cl)cc(Cl)c4)n[nH]c3=S)cc2s1	4.46	
O=C(O)c1cc2ccc(-n3c(S)nnc3-c3ccc(Br)c(Cl)c3)cc2s1	4.92	
CCOc1ccc2cc(C3CN(C(=O)CCC(=O)O)N=C3c3ccc(Br)cc3)c(Cl)nc2c1 (centres undefined)		pIC50 [3]: 4.40
O=C(O)c1sc2cc(-n3c(S)nnc3-c3cccc(Br)c3)ccc2c1Cl	4.24	
Cc1cccc(-c2n[nH]c(=S)n2-c2ccc3cc(C(=O)O)sc3c2)c1	< 3.60	
O=C(O)c1sc2cc(-n3c(S)nnc3-c3ccc(Br)c(Cl)c3)ccc2c1Cl	4.96	inhibition (Homo sapiens): inactive; pKd [4]: 5.00
O=C(O)c1cc2ccc(-n3c(S)nnc3-c3ccc(Cl)cc3)cc2s1	4.11	
O=C(O)c1sc2cc(Cl)ccc2c1Cl	3.20	
O=C(O)c1sc2cc(-n3c(-c4cc(Cl)cc(Cl)c4)n[nH]c3=S)ccc2c1Cl	4.82	
COc1ccc(-c2nnc(SCC(=O)O)n2-c2cccc(Cl)c2)cc1	< 3.60	
O=C(O)CSc1nnc(-c2ccccc2Br)n1-c1cccc(Cl)c1	< 3.60	
O=C(O)CSc1nnc(-c2ccc(O)cc2)n1-c1ccc(Cl)c(Cl)c1	3.63	
O=C(O)c1cc2ccc(-n3c(-c4ccc(Br)cc4)n[nH]c3=S)cc2s1	4.15	

Now from value to molecule, other results behind:

pKd [1]	SMILES	further results
< 3.60	COc1ccc(-c2nnc(SCC(=O)O)n2-c2ccc(Cl)cc2)cc1	
4.33	O=C(O)c1sc2cc(-n3c(S)nnc3-c3ccc(F)cc3)ccc2c1Cl	
4.28	O=C(O)c1sc2cc(-n3c(S)nnc3-c3ccc(Cl)cc3)ccc2c1Cl	
4.37	O=C(O)c1sc2cc(-n3c(-c4ccc5ccccc5c4)n[nH]c3=S)ccc2c1Cl	
< 3.60	O=C(O)CSc1nnc(-c2ccccc2Cl)n1-c1cccc(Cl)c1	
4.33	O=C(O)CSc1nnc(-c2ccc3ccccc3c2)n1-c1ccc(Cl)c(Cl)c1	
3.96	Nc1ccc(-c2nnc(SCC(=O)O)n2-c2ccc(Cl)c(Cl)c2)cc1	
3.79	COc1ccc(-c2nnc(SCC(=O)O)n2-c2ccc(Cl)c(Cl)c2)cc1	
4.74	Cc1ccc2c(Cl)c(-c3nnc(SCC(=O)O)n3-c3ccc(Cl)c(Cl)c3)sc2c1	
4.34	O=C(O)CSc1nnc(-c2sc3ccccc3c2Cl)n1-c1ccc(Cl)c(Cl)c1	
4.31	O=C(O)c1cc2ccc(-n3c(-c4cccc(Br)c4)n[nH]c3=S)cc2s1	
< 3.60	O=C(O)CSc1nnc(-c2ccc(F)cc2)n1-c1cccc(Cl)c1	
4.80	O=C(O)c1sc2cc(-n3c(-c4ccc(Cl)c(Br)c4)n[nH]c3=S)ccc2c1Cl	
4.38	O=C(O)c1sc2cc(-n3c(S)nnc3-c3ccc(Br)cc3)ccc2c1Cl	
4.60	O=C(O)c1sc2cc(-n3c(S)nnc3C3CCCCC3)ccc2c1Cl	
2.73	Clc1ccc(-c2nn[nH]n2)cc1	
4.51	Cc1cc(-c2nnc(S)n2-c2ccc3c(Cl)c(C(=O)O)sc3c2)ccc1Br	
4.08	Cc1cccc(-c2n[nH]c(=S)n2-c2ccc3c(Cl)c(C(=O)O)sc3c2)c1	
4.32	Cc1cccc(-c2n[nH]c(=S)n2-c2ccc3c(Cl)c(C(=O)O)sc3c2)c1Br	
< 3.60	Cc1ccccc1-c1nnc(S)n1-c1ccc2cc(C(=O)O)sc2c1	
3.75	O=C(O)CSc1nnc(-c2ccc([N+](=O)[O-])cc2)n1-c1ccc(Cl)c(Cl)c1	
4.96	O=C(O)c1sc2cc(-n3c(S)nnc3-c3ccc(Cl)c(Cl)c3)ccc2c1Cl	inhibition (Homo sapiens): inactive; pKd [4]: 4.77
< 3.60	Cc1ccc(-c2nnc(S)n2-c2ccc3cc(C(=O)O)sc3c2)cc1	
3.98	O=C(O)c1cc2ccc(-n3c(-c4cccc(Oc5ccccc5)c4)n[nH]c3=S)cc2s1	
4.20	O=C(O)c1sc2cc(-n3c(-c4cccc(Oc5ccccc5)c4)n[nH]c3=S)ccc2c1Cl	
4.04	Cc1ccc(-c2n[nH]c(=S)n2-c2ccc3c(Cl)c(C(=O)O)sc3c2)cc1	
< 3.60	O=C(O)c1cc2ccc(-n3c(-c4ccc(F)cc4)n[nH]c3=S)cc2s1	
